Experimental data from patent EP3381908A1, “2-(4-(4-(BROMO-METHOXYBENZAMIDO)BENZYLAMINO)PHENYL)BENZAZOLE DERIVATIVES AND THEIR USE AS ANTI-HEPARANASE” (Leadiant Biosciences SA, priority 2017, dated 2018).
Read-outs that look alike come from different tables or passages of the source. Values belong to the molecule of their own block, whether it stands above or below them.

Legend:
heparanase = molecular target: T1, heparanase (Homo sapiens, UniProt Q9Y251); assay: AGA*IA assay (fondaparinux cleavage, WST-1 colorimetric) for heparanase inhibition; assay type: biochemical
T1 sequence (Q9Y251 158-543 limits assumed): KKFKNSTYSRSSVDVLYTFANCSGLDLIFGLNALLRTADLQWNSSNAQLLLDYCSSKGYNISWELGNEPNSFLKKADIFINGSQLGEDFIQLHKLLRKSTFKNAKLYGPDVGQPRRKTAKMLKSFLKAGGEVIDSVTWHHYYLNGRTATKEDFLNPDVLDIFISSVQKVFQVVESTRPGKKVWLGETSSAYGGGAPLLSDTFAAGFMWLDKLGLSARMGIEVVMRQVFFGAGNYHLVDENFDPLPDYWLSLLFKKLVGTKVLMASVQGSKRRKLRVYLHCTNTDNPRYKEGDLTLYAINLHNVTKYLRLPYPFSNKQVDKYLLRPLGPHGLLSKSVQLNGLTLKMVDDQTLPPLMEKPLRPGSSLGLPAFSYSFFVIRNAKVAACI
T1 sequence (Q9Y251 36-109 limits assumed): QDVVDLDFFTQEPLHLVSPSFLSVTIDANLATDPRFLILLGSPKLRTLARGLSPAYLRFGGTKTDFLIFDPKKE
Description: All compounds were tested in a simple, accurate and robust microplate assay based on the cleavage of the synthetic heparin fragment, the pentasaccharide Fondaparinux (AGA*IA). This assay was originally developed by Hammond and coworkers [Hammond E, Li CP, Ferro V. Development of a colorimetric assay for heparanase activity suitable for kinetic analysis and inhibitor screening. […] Fondaparinux is cleaved by heparanase to generate a reducing disaccharide, which can be quantitatively measured via a colorimetric or a fluorescence assay, the last by the fluorescent sensor polymer-H [Schiemann S, Lühn S, Alban S. Development of both colorimetric and fluorescence heparinase activity assays using fondaparinux as substrate.
The assay measures the appearance of the disaccharide product of heparanase-catalyzed fondaparinux cleavage colorimetrically using the tetrazolium salt WST-1. Assay was essentially performed as described with minor modifications. Briefly, NUNC ELISA 96-well plates were pre-treated with a solution of 4% BSA (bovin serum albumin) in phosphate-buffered saline containing 0.05% Tween 20 (PBST), for 2 h at 37°C, then washed three times with PBST, dried by tapping on paper towel and stored at -20°C. Before use, once again, the plates were washed with PBST.
Then, the absorbance at 560 nm was measured through a microplate reader (Victor 3, Perkin Elmer).
Finally, the measurements were corrected by subtracting both the reagent background and the inner absorbance value of test compound. Table 2. IC50 value in AGA*IA assay, versus heparanase inhibition of selected compounds of present invention.

[1] = tested on: HT1080 (human fibrosarcoma); assay: SRB Cell Cytotoxicity Assay, 72h; assay type: cell-based; conditions: Conc. 2.5 µM, N.I.: Not Inhibition
[2] = tested on: U87MG (human glioblastoma astrocytoma); assay: SRB Cell Cytotoxicity Assay, 72h; assay type: cell-based; conditions: Conc. 2.5 µM, N.I.: Not Inhibition
[3] = tested on: U2OS (human osteosarcoma); assay: SRB Cell Cytotoxicity Assay, 72h; assay type: cell-based; conditions: Conc. 2.5 µM, N.I.: Not Inhibition
[4] = tested on: HT1080 (human fibrosarcoma); assay: Matrigel cell invasion assay; assay type: cell-based
Description: (§1) Heparanase inhibitors were then evaluated for their activity on the invasive potential of HT1080 (human fibrosarcoma), U87MG (human glioblastoma astrocytoma) and U2OS (human osteosarcoma) human cell lines, using the Matrigel cell invasion assay which allows to assess the cell invasion ability of malignant and normal cells.
(§2) Invasion assay was performed using BioCoat cell culture inserts (BioCoat 8.0µm PET Membrane 24 Well Permeable Supports, Corning). Filters were coated with 100 µl of 300 µg/ml Matrigel dissolved in coating buffer (0.01M Tris pH 8.0, 0.7% NaCl) (Becton-Dickinson Sciences). DMEM (Dulbecco's Modified Eagle's Medium) containing 5% FBS was added to the lower chambers. Cells were pre-treated with heparanase inhibitors for 24 h, detached and added to the upper chambers in media containing the inhibitors. Cells were allowed to invade for 24 h at 37°C in a CO2 incubator and then unmigrated cells were removed from the upper chamber with a cotton swab. The invading cells were fixed, stained with 0.1% crystal violet for 10 min at room temperature, photographed and counted under inverted microscope.
(§3) Test compounds were analyzed at fixed concentration for several fields, in duplicates. Activity of test compounds was compared to the reference compound. Activity of most interesting compound was confirmed in a second cell invasion assay. Data were expressed as the percent invasion with respect to cell migration through uncoated insert membrane.

[5] = tested on: U2OS (human osteosarcoma); assay: Matrigel cell invasion assay; assay type: cell-based
Description: as §1, §2, §3

[6] = tested on: U87MG (human glioblastoma astrocytoma); assay: Matrigel cell invasion assay; assay type: cell-based
Description: as §1, §2, §3

FGF-1 = assay: Real-Time Quantitative PCR of mRNA gene expression in HT1080 cells; conditions: 24 h, Conc 1.0 uM
FGF-2 = assay: as above; conditions: 24 h, Conc 1.0 uM
VEGF = assay: as above; conditions: 24 h, Conc 1.0 uM
MMP-9 = assay: as above; conditions: 24 h, Conc 1.0 uM
[7] = Table 1, fluorinated vs non-fluorinated analogues
[8] = Table 3, fluorinated vs non-fluorinated derivatives, read-out: AGAIA assay IC50

IC50 (heparanase; [7]): 2.86 µM
IC50 (heparanase; Table 2, class symbols): 1 to 20 µM
IC50 (heparanase; [8]): 2.86 µM
SMILES: COc1ccc(C(=O)Nc2ccc(CNc3ccc(-c4nc5cc(CC(=O)O)ccc5[nH]4)cc3F)cc2)cc1Br [Compound 10, 2-(2-(4-((4-(3-bromo-4-methoxybenzamido)benzyl)amino)-3-fluorophenyl)-1H-benzo[d]imidazol-5-yl)acetic acid]

IC50 (heparanase; Table 2, class symbols): 0.5 to 0.99 µM
SMILES: COc1ccc(C(=O)Nc2ccc(CNc3ccc(-c4nc5cc(CC(=O)NCC(=O)O)ccc5[nH]4)cc3F)cc2)cc1Br [Compound 15, 2-(2-(2-(4-((4-(3-bromo-4-methoxybenzamido)benzyl)amino)-3-fluorophenyl)-1H-benzo[d]imidazol-5-yl)acetamido)acetic acid]
Concentration of test compounds at which the cell growth is inhibited by 50 % HT1080 [1]: N. I.
Concentration of test compounds at which the cell growth is inhibited by 50 % U87MG [2]: N. I.
Concentration of test compounds at which the cell growth is inhibited by 50 % U2OS [3]: N. I.
Invasion Assay HT1080 ([4]; Conc. 2.5µM): + (+ : < 50%)
Invasion Assay U2OS ([5]; Conc. 2.5µM): + (+ : < 50%)
Invasion Assay U87MG ([6]; Conc. 2.5µM): + (+ : < 50%)

SMILES: COc1ccc(C(=O)Nc2ccc(CNc3ccc(-c4nc5ccccc5[nH]4)cc3F)cc2)cc1Br [Compound 22]
Invasion Assay HT1080 ([4]; Conc. 1.1µM): ++ (++: 50-90%)
Invasion Assay U2OS ([5]; Conc. 1.1µM): ++ (++: 50-90%)
Invasion Assay U87MG ([6]; Conc. 1.1µM): ++ (++: 50-90%)
Gene Expression (% mRNA vs. control) FGF-1 (FGF-1): ∼ 77%
Gene Expression (% mRNA vs. control) FGF-2 (FGF-2): ∼ 71%
Gene Expression (% mRNA vs. control) VEGF (VEGF): ∼ 67%
Gene Expression (% mRNA vs. control) MMP-9 (MMP-9): ∼ 52%

SMILES: COc1ccc(C(=O)Nc2ccc(CNc3ccc(-c4nc5ccccc5[nH]4)cc3)cc2)cc1Br [SST0408AA1, reference compound]
Gene Expression (% mRNA vs. control) FGF-1 (FGF-1): ∼ 97%
Gene Expression (% mRNA vs. control) FGF-2 (FGF-2): ∼ 92%
Gene Expression (% mRNA vs. control) VEGF (VEGF): ∼ 72%
Gene Expression (% mRNA vs. control) MMP-9 (MMP-9): ∼ 69%

IC50 (heparanase; [7]): > 10 µM
IC50 (heparanase; [8]): > 10 µM
SMILES: COc1ccc(C(=O)Nc2ccc(CNc3ccc(-c4nc5cc(CC(=O)O)ccc5[nH]4)cc3)cc2)cc1Br [SST0914AA1, 2-(2-(4-((4-(3-bromo-4-methoxybenzamido)benzyl)amino)-phenyl)-1H-benzo[d]imidazol-5-yl)acetic acid, reference compound]

IC50 (heparanase; [7]): > 10 µM
IC50 (heparanase; [8]): > 10 µM
SMILES: COc1ccc(C(=O)Nc2ccc(CNc3ccc(-c4nc5cc(CC(=O)O)ccc5o4)cc3)cc2)cc1Br [SST0915AA1, 2-(2-(4-((4-(3-bromo-4-methoxybenzamido)benzyl)amino)phenyl)benzo[d]oxazol-5-yl)acetic acid, reference compound]

SMILES: Cc1ccc(C(=O)Nc2ccc(S(=O)(=O)O)c3cc(S(=O)(=O)O)cc(S(=O)(=O)O)c23)cc1NC(=O)c1cccc(NC(=O)Nc2cccc(C(=O)Nc3cc(C(=O)Nc4ccc(S(=O)(=O)O)c5cc(S(=O)(=O)O)cc(S(=O)(=O)O)c45)ccc3C)c2)c1 [Suramin, reference compound]
Invasion Assay HT1080 ([4]; Conc. 10µM): + (+ : < 50%)
Invasion Assay U2OS ([5]; Conc. 10µM): -
Invasion Assay U87MG ([6]; Conc. 10µM): -
